What was measured:
[1] = Histological score of subcutaneous toxicity after 24 h continuous SC LD/CD; type: in vivo, Pigs; conditions: 0.2% added to LD/CD 5.4/1.5% + 1% ascorbate
[2] = cited from earlier work; for pH compatibility: check mark; for Solubility: in words
[3] = Titration with acetic or lactic acid: pH and physical stability (Table D); type: physicochemical
Tyrosinase = target: T1, Tyrosinase (Homo sapiens, UniProt P14679); conditions: tyrosinase inhibitor; cited from earlier work
T1 sequence (P14679 19-529): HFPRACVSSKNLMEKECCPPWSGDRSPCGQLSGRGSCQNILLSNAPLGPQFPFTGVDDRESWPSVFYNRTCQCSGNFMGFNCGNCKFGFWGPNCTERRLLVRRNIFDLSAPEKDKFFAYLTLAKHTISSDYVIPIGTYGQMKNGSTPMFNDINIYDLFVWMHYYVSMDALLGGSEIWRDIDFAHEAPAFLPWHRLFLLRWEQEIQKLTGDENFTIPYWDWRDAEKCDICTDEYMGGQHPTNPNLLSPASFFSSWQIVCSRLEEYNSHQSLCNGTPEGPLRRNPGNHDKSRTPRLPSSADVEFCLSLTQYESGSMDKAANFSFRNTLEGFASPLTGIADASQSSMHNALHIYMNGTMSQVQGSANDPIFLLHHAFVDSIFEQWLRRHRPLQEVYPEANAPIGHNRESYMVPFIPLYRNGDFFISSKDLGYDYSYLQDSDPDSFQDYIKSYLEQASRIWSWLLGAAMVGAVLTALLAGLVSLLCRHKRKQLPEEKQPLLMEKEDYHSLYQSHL

[4] = Chemical stability of levodopa formulations with carbidopa (Tables F, G); type: physicochemical; conditions: Table F
Procedure: The effect of carbidopa on levodopa formulations was investigated. Levodopa (LD) formulations were prepared with 0, 0.5, 1, 1.5 & 2% by weight carbidopa (CD) and a constant concentration of arginine.
In an additional experiment, LD formulations were prepared with 0, 0.5, 1 & 2% CD and respective concentrations of arginine.

[5] = Colour formation of levodopa/arginine solutions in vitro (FIG. 1A); type: physicochemical
Procedure: FIG. 1 depicts the effect of carbidopa on the stability of levodopa In Vitro and Ex Vivo: A. 6% weight levodopa and arginine solution with various concentrations (2, 1.5, 1, 0.5%) of carbidopa or no carbidopa were tested for physical stability in vitro. […] B. 7% weight percent levodopa and arginine solution, with or without 2% carbidopa by weight, continuously administered in to the subcutaneous tissue of a 5×5 cm fresh, full-thickness pig skin.
In the absence of air (with N2 in the head space) 0.5% CD was sufficient to inhibit this color formation.

[6] = Stability of carbidopa formulations with levodopa (Table H); type: physicochemical
Source text: The effect of levodopa on the stability of carbidopa was investigated. Table H indicates results.

Question: Which results are given for `O=C([O-])CN(CCN(CC(=O)[O-])CC(=O)[O-])CC(=O)[O-].[Ca+2].[Na+].[Na+]` [EDTA calcium disodium]?
Answer: protection from local toxicity compared to 1% ascorbate alone [1]: did not have a supplementary effect; pH compatibility [2]: √

Question: Which pH compatibility [2] does the source give for `O=C([O-])CN(CCN(CC(=O)[O-])CC(=O)O)CC(=O)O.[Na+].[Na+]` [EDTA disodium] here?
Answer: Its pH compatibility is “√”.

Question: With `O=C1O[C@H]([C@@H](O)CO)C(O)=C1O` [Ascorbic acid] as the compound, how does the “reduction of pH as compared to Na-ascorbate” value [3] read?
Answer: Its value is 0.1-0.15 units.

Question: Which “protection from local toxicity compared to 1% ascorbate alone” value [1] does the source give for `C[C@H](CS)C(=O)N1CCC[C@H]1C(=O)O` [Captopril] here?
Answer: Its value is “did not have a supplementary effect”.

Question: And the Solubility [2]?
Answer: Its Solubility is “Soluble”.

Question: And the Min required concentration (Tyrosinase)?
Answer: The Min required concentration was 0.04 mg/mL.

Question: For `N[C@@H](CS)C(=O)O` [L-Cysteine], which Solubility [2] is on record?
Answer: The Solubility was “Soluble”.

Question: With `CC(C)(S)[C@@H](N)C(=O)O` [DPA (D-penicillamine), D-penicillamine] as the compound, how does the Solubility [2] read?
Answer: The Solubility was “Soluble”.

Question: Which Solubility [2] does the source give for `O=C(O)[C@@H](S)[C@@H](S)C(=O)O` [DMSA (succimer)] here?
Answer: The Solubility was “Soluble”.

Question: For `Cn1cc[nH]c1=S` [Methimazole], which Solubility [2] is on record?
Answer: The Solubility was “Soluble”.

Question: What does the source list for `C[C@@](Cc1ccc(O)c(O)c1)(NN)C(=O)O` [carbidopa]?
Answer: effect on the chemical stability of levodopa [4]: does not have a significant effect; dark yellow color formation ([5]; 6% levodopa/arginine solution, in the presence of air, dose related): prevented dark yellow color formation; carbidopa concentration sufficient to inhibit color formation ([5]; absence of air (N2 in the head space)): 0.5%; sensitivity of CD to oxidation and degradation [6]: more stable in the presence of LD
